The target of one data set is T1, purified HHAT (Homo sapiens, UniProt Q5VTY9).
T1 construct: made in house
The experiment in a line: Acyl-cLIP assay, inhibition of purified HHAT. It is filed as biochemical. To be noted: for IC50: purified HHAT, read-out: Acyl-cLIP Assay IC50 (CI95). Here is the method: The inhibitory potency of all 50 compounds against purified HHAT was quantified using the acylation-coupled lipophilic induction of polarization (acyl-cLIP) assay recently developed in our lab, a universally applicable assay for high-throughput analysis of protein–lipid transferases and hydrolases.[31],[40] In brief, in this assay a fluorescently labeled peptide based on the N-terminal sequence of SHH is incubated with N-dodecyl β-D-maltoside (DDM) solubilized purified HHAT, palmitoyl-CoA, and HHAT inhibitors. Binding of the lipidated peptide product to the DDM micelle results in decreased tumbling rate and an increase in polarization of fluorescence emission, enabling facile quantification of HHAT activity. Initially, % HHAT inhibition was determined at 50 μM and 25 μM for all analogues. […] HHAT is a 12-pass TM protein,[14] and we considered whether lipophilicity might bias inhibition; pIC50 values were compared to calculated log D, which indicated no significant correlation (SI, Table S1 and Figure S2). We concluded that lipophilicity is not a general driver of HHAT inhibitory potency.
The acyl-cLIP assay has been described previously.[40] Briefly, SHH-FAM peptide was diluted in buffer A (100 mM MES, 20 mM NaCl, 1 mM DTT, 1 mM TCEP, 0.1% BSA, pH 6.5) to a concentration of 2 μM. Palmitoyl-CoA (Sigma-Aldrich) was diluted in buffer A to 7.5 μM and recombinant HHAT (obtained by following the published protocol[14]) in buffer B (20 mM HEPES, 350 mM NaCl, 1% DDM, 5% glycerol, pH 7.3) diluted to 44 μg/mL. 1.5 μL of a 50 mM inhibitor DMSO stock was diluted with 18.5 μL of DMSO and further serial diluted (1:1). For each condition, 6 μL of the HHAT working stock and […] of the SHH-peptide working stock were mixed with 3 μL of the corresponding inhibitor concentration or DMSO vehicle. Twelve μL/well of this mixture was split into four wells of a black 384 well plate. To start the reaction, 8 μL of the Pal-CoA working stock were added to each well and fluorescence anisotropy and the total fluorescence recorded on an EnVision Xcite 2104 (PerkinElmer) over 30 min (emission filter 1 = FITC FP P-pol 535; emission filter 2 = FITC S-pol 535; excitation filter: FITC FP 480; measurement height = 6.5 mm; detector gain = 0; high concentration gain). Initial rate constants were determined by linear regression and normalized to DMSO control and samples with buffer B instead of HHAT. IC50 values were extracted from the corresponding dose response curves using a “sigmoidal dose response (variable slope)” model in GraphPad Prism 5 (GraphPad Software, Inc.).

Data set [1] is described as follows: MTS assay, cytotoxicity (72 h). It is filed as cell-based. Conditions: human, HEK293a SHH+ cells, 72 h; for CC50 at 72 h: read-out: MTS Assay (HEK293a SHH+) CC50 (CI95). On the procedure: The survival of HEK293a SHH^+ cells is independent of HH signaling,[35] therefore, the cytotoxicity of analogues was tested using the MTS assay to investigate off-target toxicity. In this assay, HEK293a SHH^+ cells were treated with DMSO vehicle or varying concentrations of analogues for 72 h. Subsequently, a mixture of 1-methoxy phenazine methosulfate (PMS) and [3-(4,5-dimethylthiazol-2-yl)-5-(3-carboxymethoxyphenyl)-2-(4-sulfophenyl)-2H-tetrazolium] (MTS) was added to enable quantification of cell number via colorimetric analysis. […] Compounds 3, 17, 19, 32, 34, 38, and 45, which all contain a 2-((2-methylbutyl)amino)acetyl, were toxic to HEK293a SHH^+ cells, as were ureas 26, 40, and 41.
HEK293a SHH^+ cells were plated at 5000 cells/well in a 96-well plate (Nunc) using a volume of 50 μL/well and cultured for 24 h as described. Cells were treated with 100 μL/well of either DMSO vehicle, Puromycin (2 μg/mL), or stated analogues (0.14–100 μM final) in DMEM supplemented with 10% FBS. After 72 h, 20 μL/well of a mixture of 1-methoxy phenazine methosulfate (PMS) and [3-(4,5-dimethylthiazol-2-yl)-5-(3-carboxymethoxyphenyl)-2-(4-sulfophenyl)-2H-tetrazolium] (MTS) at a ratio of MTS/PMS = 2/0.92 mg/mL in PBS was added and the plates were incubated for 3 h at 37 °C. Subsequently, the absorption at 490 nm was recorded using an EnVision Xcite 2104 (PerkinElmer), and the response was normalized to vehicle control and Puromycin treated samples. Dose response curves were fitted to a “sigmoidal dose response (variable slope)” model using GraphPad Prism 5 (GraphPad Software, Inc.).
In general terms: Tetrazolium assays rely on reduction of a dye to a coloured formazan, in cell work by metabolically active cells.

T1 sequence (Q5VTY9 whole entry): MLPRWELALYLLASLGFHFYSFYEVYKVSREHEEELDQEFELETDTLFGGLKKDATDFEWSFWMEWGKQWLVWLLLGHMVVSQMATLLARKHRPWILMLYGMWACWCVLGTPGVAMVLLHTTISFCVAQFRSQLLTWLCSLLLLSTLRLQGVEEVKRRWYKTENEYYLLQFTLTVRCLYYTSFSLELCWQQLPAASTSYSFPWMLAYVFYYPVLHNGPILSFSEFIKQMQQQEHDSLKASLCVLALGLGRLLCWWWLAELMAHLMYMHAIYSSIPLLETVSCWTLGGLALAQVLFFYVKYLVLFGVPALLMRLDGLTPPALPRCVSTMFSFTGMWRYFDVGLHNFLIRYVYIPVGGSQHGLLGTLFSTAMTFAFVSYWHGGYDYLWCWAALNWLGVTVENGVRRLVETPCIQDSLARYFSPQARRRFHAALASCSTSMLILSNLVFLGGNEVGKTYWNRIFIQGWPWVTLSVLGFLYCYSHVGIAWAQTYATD

A word on the inhibition: it is the drop in the measured response relative to a control, in per cent. Usually IC50 stands for the concentration needed to halve the response being measured. As usually defined, the viability is the share of living cells, or the viability signal relative to a control. Read a high viability as less harm to the cells. Regarding `CCCCCCCC(=O)N1CCc2sccc2C1c1ccccc1` (centres unmarked) [Compound 13, 1-(4-Phenyl-6,7-dihydrothieno[3,2-c]pyridin-5(4H)-yl)octan-1-one], at purified HHAT, the “HHAT inhibition in the acyl-cLIP assay” value is “loss of activity”, the inhibition at 25 µM is 6 ± 6%, the inhibition at 50 µM is 4 ± 6% and the IC50 was > 25 µM. In addition, in data set [1], the viability at 72 h, 12.5 µM was 47 ± 1% and the viability at 72 h, 25 µM was 35 ± 2%.

For `CCC(C)CNCC(=O)N1CCc2sccc2C1C1CCCCC1` (centres unmarked) [Compound 36, 1-(4-Cyclohexyl-6,7-dihydrothieno[3,2-c]pyridin-5(4H)-yl)-2-((2-methylbutyl)amino)ethan-1-one], at purified HHAT, the “HHAT inhibition in the acyl-cLIP assay” value is listed as “loss of activity”, the inhibition at 25 µM was 24 ± 1%, the inhibition at 50 µM was 24 ± 14% and the IC50 was > 25 µM. Moreover, in data set [1], the viability at 72 h, 12.5 µM stood at 47 ± 4% and the viability at 72 h, 25 µM came to 25 ± 1%.

A word on the CC50: it is the concentration at which the toxic effect on the cells reaches its halfway point. In the case of `C=CC(=O)N1CCn2cccc2C1c1ccccc1` (centres unmarked) [Compound 46, 1-(1-Phenyl-3,4-dihydropyrrolo[1,2-a]pyrazin-2(1H)-yl)prop-2-en-1-one], on purified HHAT, the “HHAT inhibition in the acyl-cLIP assay” value is on record as “loss of potency”, the inhibition at 25 µM is 7 ± 1%, the inhibition at 50 µM was 12 ± 1% and the IC50 was > 25 µM. Further, in data set [1], the CC50 at 72 h was > 100 µM; the viability at 72 h, 12.5 µM is 96 ± 2%; the viability at 72 h, 25 µM was 97 ± 2%.

Consider `CC(=O)N1CCCCC1c1ccccc1` (centres unmarked) [Compound 47, 1-(2-Phenylpiperidin-1-yl)ethan-1-one], for which, at purified HHAT, the inhibition at 25 µM was -14 ± 2%, the inhibition at 50 µM is -3 ± 2% and the IC50 is > 25 µM. In data set [1], the CC50 at 72 h is > 50 µM; the viability at 72 h, 12.5 µM came out at 95 ± 2%; the viability at 72 h, 25 µM was 93 ± 5%.

`N[C@@H](Cc1ccccc1)C(=O)N1CCc2sccc2C1c1ccccc1` (stereo partly drawn) [Compound 11, (2S)-2-Amino-3-phenyl-1-(4-phenyl-6,7-dihydrothieno[3,2-c]pyridin-5(4H)-yl)propan-1-one]: on purified HHAT, the inhibition at 25 µM is -6 ± 3%, the inhibition at 50 µM is -2 ± 6% and the IC50 was > 25 µM. In data set [1], the viability at 72 h, 12.5 µM was 46 ± 2% and the viability at 72 h, 25 µM is 38 ± 1%.

Take `C[C@H](N)C(=O)N1CCc2sccc2C1c1ccccc1` (stereo partly drawn) [Compound 7, (2S)-2-Amino-1-(4-phenyl-6,7-dihydrothieno[3,2-c]pyridin-5(4H)-yl)propan-1-one]: at purified HHAT, the inhibition at 25 µM amounted to 42 ± 1% and the inhibition at 50 µM came out at 67 ± 3%. In data set [1], this molecule had a viability at 72 h, 12.5 µM of 99 ± 3% and a viability at 72 h, 25 µM of 74 ± 4%.

Take `CC(C)[C@H](N)C(=O)N1CCc2sccc2C1c1ccccc1` (stereo partly drawn) [Compound 8, (2S)-2-Amino-3-methyl-1-(4-phenyl-6,7-dihydrothieno[3,2-c]pyridin-5(4H)-yl)butan-1-one]: at purified HHAT, the inhibition at 25 µM was determined as 9 ± 4%, the inhibition at 50 µM stood at 7 ± 11% and the half-maximal inhibitory concentration (IC50) was > 25 µM. In data set [1], this molecule registered a viability at 72 h, 12.5 µM of 92 ± 3% and a viability at 72 h, 25 µM of 92 ± 3%.

As for `N[C@H](C(=O)N1CCc2sccc2C1c1ccccc1)c1ccccc1` (stereo partly drawn) [Compound 10, (2S)-2-Amino-2-phenyl-1-(4-phenyl-6,7-dihydrothieno[3,2-c]pyridin-5(4H)-yl)ethan-1-one], at purified HHAT, the inhibition at 25 µM came to 18 ± 1%, the inhibition at 50 µM amounted to 21 ± 7% and the IC50 was > 25 µM. Besides, in data set [1], the viability at 72 h, 12.5 µM turned out to be 74 ± 3% and the viability at 72 h, 25 µM turned out to be 43 ± 2%.

As for `Cc1cccc(C2NCCc3sccc32)c1` (centres unmarked) [Compound 14], on purified HHAT, the “HHAT inhibition in the acyl-cLIP assay” value was “inactive”, the inhibition at 25 µM worked out at 5 ± 3%, the inhibition at 50 µM is -16 ± 16% and the half-maximal inhibitory concentration (IC50) was > 25 µM. Also, in data set [1], the viability at 72 h, 12.5 µM came out at 72 ± 3% and the viability at 72 h, 25 µM stood at 74 ± 3%.

The record behind these values is article PMC10823475, “Design, Synthesis, and Evaluation of Inhibitors of Hedgehog Acyltransferase” (Journal of Medicinal Chemistry, 2024).
